Laboratory results published in patent publication US8765669B2, “Glycosylated GLP-1 peptide” (Glytech, Inc., priority 2008, dated 2014).

What follows are compounds tested against T1, DPP-IV (dipeptidyl peptidase IV from porcine kidney) (Sus scrofa, UniProt P22411) (assay: Test of resistance to dipeptidyl peptidase IV (DPP-IV)). Settings: half-life (t1/2) in DPP-IV solution at 37° C., GLP-1 of Comparative Example 1 defined as standard (=1).
T1 construct: dipeptidyl peptidase IV from porcine kidney, product of SIGMA; purchased SIGMA; host or cells: porcine kidney (tissue-derived enzyme)
T1 sequence (P22411 whole entry): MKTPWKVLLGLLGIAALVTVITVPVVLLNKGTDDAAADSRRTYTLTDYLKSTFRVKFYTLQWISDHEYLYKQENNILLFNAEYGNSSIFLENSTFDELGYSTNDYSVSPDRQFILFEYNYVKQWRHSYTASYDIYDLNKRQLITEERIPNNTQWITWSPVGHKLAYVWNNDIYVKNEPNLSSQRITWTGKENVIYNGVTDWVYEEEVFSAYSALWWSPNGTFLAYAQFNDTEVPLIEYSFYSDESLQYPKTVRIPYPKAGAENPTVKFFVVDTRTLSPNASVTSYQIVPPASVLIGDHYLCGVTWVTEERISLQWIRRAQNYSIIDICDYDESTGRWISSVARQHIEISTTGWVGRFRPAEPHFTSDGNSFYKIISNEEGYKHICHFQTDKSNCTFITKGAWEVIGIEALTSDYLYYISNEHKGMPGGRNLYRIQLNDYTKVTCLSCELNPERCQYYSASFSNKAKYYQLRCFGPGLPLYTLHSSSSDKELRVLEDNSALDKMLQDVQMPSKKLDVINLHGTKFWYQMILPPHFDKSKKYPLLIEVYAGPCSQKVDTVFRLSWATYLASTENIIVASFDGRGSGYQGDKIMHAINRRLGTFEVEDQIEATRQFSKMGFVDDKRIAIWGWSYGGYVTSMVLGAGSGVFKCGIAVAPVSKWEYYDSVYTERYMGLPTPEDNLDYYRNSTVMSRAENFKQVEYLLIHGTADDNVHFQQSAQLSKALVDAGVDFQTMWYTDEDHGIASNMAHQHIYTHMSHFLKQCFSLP
Format: in vitro ADME
Procedure: Each solution mixture was adjusted with 100 mM sodium phosphate buffer to 100 μl in total and allowed to react at 37° C. A 10 μaliquot of the reaction solution was mixed with 15 μl of 10% trifluoroacetic acid prepared in advance in another Eppendorf tube.

Structure (SMILES)	Relative Resistance
CC[C@H](C)[C@H](NC(=O)[C@H](Cc1ccccc1)NC(=O)[C@H](CCC(=O)O)NC(=O)[C@H](CCCCN)NC(=O)[C@H](C)NC(=O)[C@H](C)NC(=O)[C@H](CCC(N)=O)NC(=O)[C@H](CSCC(=O)N[C@@H]1O[C@H](CO)[C@@H](O[C@@H]2O[C@H](CO)[C@@H](O[C@@H]3O[C@H](CO[C@H]4O[C@H](CO)[C@@H](O)[C@H](O)[C@@H]4O[C@@H]4O[C@H](CO)[C@@H](O[C@@H]5O[C@H](CO[C@]6(C(=O)O)C[C@H](O)[C@@H](NC(C)=O)[C@H]([C@H](O)[C@H](O)CO)O6)[C@H](O)[C@H](O)[C@H]5O)[C@H](O)[C@H]4NC(C)=O)[C@@H](O)[C@H](O[C@H]4O[C@H](CO)[C@@H](O)[C@H](O)[C@@H]4O[C@@H]4O[C@H](CO)[C@@H](O[C@@H]5O[C@H](CO[C@]6(C(=O)O)C[C@H](O)[C@@H](NC(C)=O)[C@H]([C@H](O)[C@H](O)CO)O6)[C@H](O)[C@H](O)[C@H]5O)[C@H](O)[C@H]4NC(C)=O)[C@@H]3O)[C@H](O)[C@H]2NC(C)=O)[C@H](O)[C@H]1NC(C)=O)NC(=O)[C@H](CCC(=O)O)NC(=O)[C@H](CC(C)C)NC(=O)[C@H](Cc1ccc(O)cc1)NC(=O)[C@H](CO)NC(=O)[C@H](CO)NC(=O)[C@@H](NC(=O)[C@H](CC(=O)O)NC(=O)[C@H](CO)NC(=O)[C@@H](NC(=O)[C@H](Cc1ccccc1)NC(=O)[C@@H](NC(=O)CNC(=O)[C@H](CCC(=O)O)NC(=O)[C@H](C)NC(=O)[C@@H](N)Cc1c[nH]cn1)[C@@H](C)O)[C@@H](C)O)C(C)C)C(=O)N[C@@H](C)C(=O)N[C@@H](Cc1c[nH]c2ccccc12)C(=O)N[C@@H](CC(C)C)C(=O)N[C@H](C(=O)N[C@@H](CCCCN)C(=O)NCC(=O)N[C@@H](CSCC(=O)N[C@@H]1O[C@H](CO)[C@@H](O[C@@H]2O[C@H](CO)[C@@H](O[C@@H]3O[C@H](CO[C@H]4O[C@H](CO)[C@@H](O)[C@H](O)[C@@H]4O[C@@H]4O[C@H](CO)[C@@H](O[C@@H]5O[C@H](CO[C@]6(C(=O)O)C[C@H](O)[C@@H](NC(C)=O)[C@H]([C@H](O)[C@H](O)CO)O6)[C@H](O)[C@H](O)[C@H]5O)[C@H](O)[C@H]4NC(C)=O)[C@@H](O)[C@H](O[C@H]4O[C@H](CO)[C@@H](O)[C@H](O)[C@@H]4O[C@@H]4O[C@H](CO)[C@@H](O[C@@H]5O[C@H](CO[C@]6(C(=O)O)C[C@H](O)[C@@H](NC(C)=O)[C@H]([C@H](O)[C@H](O)CO)O6)[C@H](O)[C@H](O)[C@H]5O)[C@H](O)[C@H]4NC(C)=O)[C@@H]3O)[C@H](O)[C@H]2NC(C)=O)[C@H](O)[C@H]1NC(C)=O)C(=O)NCC(=O)O)C(C)C [Example 4, 22 and 36Cys-disialo oligosaccharide Chain Added GLP-1]	22.5
CC[C@H](C)[C@H](NC(=O)[C@H](Cc1ccccc1)NC(=O)[C@H](CCC(=O)O)NC(=O)[C@H](CCCCN)NC(=O)[C@H](C)NC(=O)[C@H](C)NC(=O)[C@H](CCC(N)=O)NC(=O)CNC(=O)[C@H](CCC(=O)O)NC(=O)[C@H](CC(C)C)NC(=O)[C@H](Cc1ccc(O)cc1)NC(=O)[C@H](CO)NC(=O)[C@H](CO)NC(=O)[C@@H](NC(=O)[C@H](CC(=O)O)NC(=O)[C@H](CO)NC(=O)[C@@H](NC(=O)[C@H](Cc1ccccc1)NC(=O)[C@@H](NC(=O)CNC(=O)[C@H](CCC(=O)O)NC(=O)[C@H](C)NC(=O)[C@@H](N)Cc1c[nH]cn1)[C@@H](C)O)[C@@H](C)O)C(C)C)C(=O)N[C@@H](CSCC(=O)N[C@@H]1O[C@H](CO)[C@@H](O[C@@H]2O[C@H](CO)[C@@H](O[C@@H]3O[C@H](CO[C@H]4O[C@H](CO)[C@@H](O)[C@H](O)[C@@H]4O[C@@H]4O[C@H](CO)[C@@H](O[C@@H]5O[C@H](CO[C@]6(C(=O)O)C[C@H](O)[C@@H](NC(C)=O)[C@H]([C@H](O)[C@H](O)CO)O6)[C@H](O)[C@H](O)[C@H]5O)[C@H](O)[C@H]4NC(C)=O)[C@@H](O)[C@H](O[C@H]4O[C@H](CO)[C@@H](O)[C@H](O)[C@@H]4O[C@@H]4O[C@H](CO)[C@@H](O[C@@H]5O[C@H](CO[C@]6(C(=O)O)C[C@H](O)[C@@H](NC(C)=O)[C@H]([C@H](O)[C@H](O)CO)O6)[C@H](O)[C@H](O)[C@H]5O)[C@H](O)[C@H]4NC(C)=O)[C@@H]3O)[C@H](O)[C@H]2NC(C)=O)[C@H](O)[C@H]1NC(C)=O)C(=O)N[C@@H](Cc1c[nH]c2ccccc12)C(=O)N[C@@H](CC(C)C)C(=O)N[C@H](C(=O)N[C@@H](CCCCN)C(=O)NCC(=O)N[C@@H](CSCC(=O)N[C@@H]1O[C@H](CO)[C@@H](O[C@@H]2O[C@H](CO)[C@@H](O[C@@H]3O[C@H](CO[C@H]4O[C@H](CO)[C@@H](O)[C@H](O)[C@@H]4O[C@@H]4O[C@H](CO)[C@@H](O[C@@H]5O[C@H](CO[C@]6(C(=O)O)C[C@H](O)[C@@H](NC(C)=O)[C@H]([C@H](O)[C@H](O)CO)O6)[C@H](O)[C@H](O)[C@H]5O)[C@H](O)[C@H]4NC(C)=O)[C@@H](O)[C@H](O[C@H]4O[C@H](CO)[C@@H](O)[C@H](O)[C@@H]4O[C@@H]4O[C@H](CO)[C@@H](O[C@@H]5O[C@H](CO[C@]6(C(=O)O)C[C@H](O)[C@@H](NC(C)=O)[C@H]([C@H](O)[C@H](O)CO)O6)[C@H](O)[C@H](O)[C@H]5O)[C@H](O)[C@H]4NC(C)=O)[C@@H]3O)[C@H](O)[C@H]2NC(C)=O)[C@H](O)[C@H]1NC(C)=O)C(=O)NCC(=O)O)C(C)C [Example 5, 30,36Cys-disialo oligosaccharide Chain Added GLP-1 Peptide]	7.5
CC[C@H](C)[C@H](NC(=O)[C@H](Cc1ccccc1)NC(=O)[C@H](CCC(=O)O)NC(=O)[C@H](CCCCN)NC(=O)[C@H](C)NC(=O)[C@H](C)NC(=O)[C@H](CCC(N)=O)NC(=O)CNC(=O)[C@H](CCC(=O)O)NC(=O)[C@H](CC(C)C)NC(=O)[C@H](Cc1ccc(O)cc1)NC(=O)[C@H](CO)NC(=O)[C@H](CO)NC(=O)[C@@H](NC(=O)[C@H](CC(=O)O)NC(=O)[C@H](CO)NC(=O)[C@@H](NC(=O)[C@H](Cc1ccccc1)NC(=O)[C@@H](NC(=O)CNC(=O)[C@H](CCC(=O)O)NC(=O)[C@H](C)NC(=O)[C@@H](N)Cc1c[nH]cn1)[C@@H](C)O)[C@@H](C)O)C(C)C)C(=O)N[C@@H](CSCC(=O)N[C@@H]1O[C@H](CO)[C@@H](O)[C@H](O[C@@H]2O[C@H](C(=O)O)[C@@H](O[C@@H]3O[C@H](CO)[C@@H](O)[C@H](O[C@@H]4O[C@H](C(=O)O)[C@@H](O)[C@H](O)[C@H]4O)[C@H]3NC(C)=O)[C@H](O)[C@H]2O)[C@H]1NC(C)=O)C(=O)N[C@@H](Cc1c[nH]c2ccccc12)C(=O)N[C@@H](CC(C)C)C(=O)N[C@H](C(=O)N[C@@H](CCCCN)C(=O)NCC(=O)N[C@@H](CCCNC(=N)N)C(=O)NCC(=O)O)C(C)C [Example 6, 30Cys-hyaluronic acid tetrasaccharide (HA-4) Added GLP-1 Peptide]	2.1
CC[C@H](C)[C@H](NC(=O)[C@H](Cc1ccccc1)NC(=O)[C@H](CCC(=O)O)NC(=O)[C@H](CCCCN)NC(=O)[C@H](C)NC(=O)[C@H](C)NC(=O)[C@H](CCC(N)=O)NC(=O)CNC(=O)[C@H](CCC(=O)O)NC(=O)[C@H](CC(C)C)NC(=O)[C@H](Cc1ccc(O)cc1)NC(=O)[C@H](CO)NC(=O)[C@H](CO)NC(=O)[C@@H](NC(=O)[C@H](CC(=O)O)NC(=O)[C@H](CO)NC(=O)[C@@H](NC(=O)[C@H](Cc1ccccc1)NC(=O)[C@@H](NC(=O)CNC(=O)[C@H](CCC(=O)O)NC(=O)[C@H](C)NC(=O)[C@@H](N)Cc1c[nH]cn1)[C@@H](C)O)[C@@H](C)O)C(C)C)C(=O)N[C@@H](CSCC(=O)N[C@@H]1O[C@H](CO)[C@@H](O)[C@H](O[C@@H]2O[C@H](C(=O)O)[C@@H](O[C@@H]3O[C@H](CO)[C@@H](O)[C@H](O[C@@H]4O[C@H](C(=O)O)[C@@H](O[C@@H]5O[C@H](CO)[C@@H](O)[C@H](O[C@@H]6O[C@H](C(=O)O)[C@@H](O[C@@H]7O[C@H](CO)[C@@H](O)[C@H](O[C@@H]8O[C@H](C(=O)O)[C@@H](O)[C@H](O)[C@H]8O)[C@H]7NC(C)=O)[C@H](O)[C@H]6O)[C@H]5NC(C)=O)[C@H](O)[C@H]4O)[C@H]3NC(C)=O)[C@H](O)[C@H]2O)[C@H]1NC(C)=O)C(=O)N[C@@H](Cc1c[nH]c2ccccc12)C(=O)N[C@@H](CC(C)C)C(=O)N[C@H](C(=O)N[C@@H](CCCCN)C(=O)NCC(=O)N[C@@H](CCCNC(=N)N)C(=O)NCC(=O)O)C(C)C [Example 7, 30Cys-hyaluronic acid octasaccharide (HA-8) Added GLP-1 Peptide]	3.4
CC[C@H](C)[C@H](NC(=O)[C@H](Cc1ccccc1)NC(=O)[C@H](CCC(=O)O)NC(=O)[C@H](CCCCN)NC(=O)[C@H](C)NC(=O)[C@H](C)NC(=O)[C@H](CCC(N)=O)NC(=O)CNC(=O)[C@H](CCC(=O)O)NC(=O)[C@H](CC(C)C)NC(=O)[C@H](Cc1ccc(O)cc1)NC(=O)[C@H](CO)NC(=O)[C@H](CO)NC(=O)[C@@H](NC(=O)[C@H](CC(=O)O)NC(=O)[C@H](CO)NC(=O)[C@@H](NC(=O)[C@H](Cc1ccccc1)NC(=O)[C@@H](NC(=O)CNC(=O)[C@H](CCC(=O)O)NC(=O)[C@H](C)NC(=O)[C@@H](N)Cc1c[nH]cn1)[C@@H](C)O)[C@@H](C)O)C(C)C)C(=O)N[C@@H](C)C(=O)N[C@@H](Cc1c[nH]c2ccccc12)C(=O)N[C@@H](CC(C)C)C(=O)N[C@H](C(=O)N[C@@H](CCCCN)C(=O)NCC(=O)N[C@@H](CSCC(=O)N[C@@H]1O[C@H](CO)[C@@H](O)[C@H](O[C@@H]2O[C@H](C(=O)O)[C@@H](O[C@@H]3O[C@H](CO)[C@@H](O)[C@H](O[C@@H]4O[C@H](C(=O)O)[C@@H](O)[C@H](O)[C@H]4O)[C@H]3NC(C)=O)[C@H](O)[C@H]2O)[C@H]1NC(C)=O)C(=O)NCC(=O)O)C(C)C [Example 8, 36Cys-hyaluronic acid tetrasaccharide (HA-4) Added GLP-1 Peptide]	2.2
